In patent US20240285717A1, “COMPOSITION FOR PREVENTING OR TREATING MUSCULAR DISEASE CONTAINING PONCIRI FRUCTUS EXTRACT” (KOREA INSTITUTE OF SCIENCE AND TECHNOLOGY, priority 2023, published 2024):

Tests used:
[1] = tested on: mice with dexamethasone-induced sarcopenia; test: Muscle force in mice with dexamethasone-induced sarcopenia; type: in vivo, C57BL/6J mice; details: 4 weeks
Protocol: (§1) C57BL/6J mice (male, 10 weeks old) were obtained from Doo-yeol Biotech, and after 2 weeks of acclimatization, they were divided into 6 test groups (n=10 per group) according to body weight. The test substance was prepared as a liquid suspension using 0.5% CMC, and the test substance was administered for 4 weeks. To compensate for the placebo effect of 0.5% CMC and the weight loss effect caused by the stress of administration, the vehicle control group was administered 0.5% CMC orally daily. Two weeks after treatment, the experimental group received an intraperitoneal injection of dexamethasone for 2 weeks to induce sarcopenia, while the normal control group received an intraperitoneal injection of saline. All mice were fed the same AIN76 diet (Research Diets) and treated with the test compound for an additional 2 weeks for a total of 4 weeks. The dark:light cycle was maintained at a 12 hr:12 hr interval and water was allowed ad libitum.
The changes in muscle force in mice were determined by the same method as in Example 3 above.

[2] = tested on: mice with dexamethasone-induced sarcopenia; test: Weight by muscle types in mice with dexamethasone-induced sarcopenia; type: in vivo, C57BL/6J mice
Protocol: as §1
At the end of a total of 4 weeks of Ponciri Fructus extract administration in Example 3 above, the weight of each type of muscle tissue in all treatment groups was determined.
After a total of 4 weeks of Auraptene administration, the weight of each type of muscle tissue in all treatment groups was determined in Example 8-5 above.

[3] = tested on: myotube cells; test: Diameter analysis of myotube cells with dexamethasone-induced myoatrophy; type: cell-based, mouse; details: auraptene 5, 10, 20 uM; dexamethasone 100 uM; FIG. 15
Protocol: The effect of auraptene (5 uM, 10 uM, 20 uM) on the diameter of myotube cells in which myoatrophy was induced by dexamethasone (100 uM) was analyzed. The results confirmed that the diameter of myotube cells decreased by dexamethasone treatment was restored by auraptene treatment (FIG. 15).

[4] = tested on: C2C12 myotube cells; test: Oxidative stress and mitochondrial function in dexamethasone-treated C2C12 myotube cells; type: cell-based, mouse; details: 10 μM dexamethasone 24 hours, then auraptene; FIG. 18
Protocol: C2C12 myoblasts were differentiated into myotube cells as in Example 1, and then treated with 10 μM dexamethasone for 24 hours to induce oxidative stress or mitochondrial dysfunction, and then treated with auraptene to determine its efficacy in improving function.

[5] = tested on: C2C12 myotube cells; test: Cell viability of C2C12 myotube cells with dexamethasone-induced myoatrophy; type: cell-based, mouse; details: for viability of myotube cells reduced by dexamethasone treatment, by isolated compounds: each compound at 20 uM, FIG. 13
Protocol: Cell culture and differentiation of myoblasts: C2C12 mouse (CRL1772; American type cell collection, USA)-derived myoblasts were cultured in Dulbecco's Modified Eagle's Medium (DMEM) medium supplemented with 10 (v/v) % FBS, and after reaching 90% confluence, they were transferred to DMEM medium containing 2 (v/v) % horse serum and cultured for 7 days to differentiate into myotube cells.
After differentiating C2C12 myoblasts into myotube cells, myoatrophy was induced by treatment with 100 µM of Dexamethasone for 24 hours, and then the myoatrophy-induced myotube cells were treated with Ponciri Fructus extract (PT) at concentrations of 5, 10, and 20 ug/ml, respectively, to determine the effect of alleviating myoatrophy.
The effect of each fraction (concentrations 5 ug/ml, 10 ug/ml, 20 ug/ml, 40 ug/ml) prepared according to Example 2 on the viability of […] in which myoatrophy was induced by dexamethasone was analyzed. The assay was performed in the same manner as in Example 1.
The effect of the compounds isolated according to Example 3 (each at a concentration of 20 uM) on the viability of myotube cells in which myoatrophy was induced by dexamethasone was analyzed. The assay was performed in the same manner as in Example 1.
The assay was performed in the same manner as in Example 1.

[6] = tested on: C2C12 myotube cells; test: RT-qPCR of myotube cell differentiation and exercise performance-related gene expression in dexamethasone-treated C2C12 myotube cells; type: cell-based, mouse; details: auraptene treatment after dexamethasone
Protocol: C2C12 mouse-derived […] treated with dexamethasone 10 µM were washed twice with PBS, and total RNA was extracted according to the user-recommended protocol of an RNA extraction kit (GeneAll RNA isolation kit, Seoul, South Korea). cDNA was synthesized from the extracted RNA and subjected to real time-quantitative polymerase chain reaction (RT-qPCR). PCR analysis was performed according to the user-recommended cycling conditions of analyzer (Applied Biosystems 7900 HT thermal cycler, Applied Biosystems), and to determine the expression level of each mRNA, fold change values were calculated relative to the control, using beta-actin as an endogeneous control, and relative expression amounts were compared. The primer sequences are as follows Myf5 forward primer: TCCAGGTATTCCCACCTGCT (sequence 1), Myf5 reverse primer: CACCTGGAGCGGATGAAGAAGAAC (sequence 2); Myf6 forward primer: ACAGATCGTCGGAAAGCAGC (sequence 3), Myf6 reverse primer: CACTCCGCAGAATCTCCACC (sequence 4); Myod forward primer: CATAGACTTGACAGGCCCCG (sequence 5), Myod reverse primer: CGGGTCCAGGTCCTCAAAAA (sequence 6); Myog forward primer: AGCTATCCGGTTCCAAAGCC (sequence 7), Myog reverse primer: GCACAGGAGACCTTGGTCAG (sequence 8); Ppard forward primer: GTATGCGCATGGGACTCACT (sequence 9), Ppard reverse primer: ACTGCCTTTACCGTGGGTTT (SEQ ID NO: 10); Ppargcla forward primer: GTTGCCTGCATGAGTGTGTG (SEQ ID NO: 11), Ppargc1a reverse primer: CACATGTCCCAAGCCATCCA (SEQ ID NO: 12). As a result, the gene expressions of Myf5, Myf6, Myod and Myog, markers of myotube cell differentiation, which were decreased by dexamethasone treatment, were increased by Ponciri Fructus extract treatment, and the gene expressions of Ppard and Pgc1a, markers of motor performance, were increased by Ponciri Fructus extract treatment, as shown in FIGS. 2 and 3.
The effect of auraptene on promoting myotube cell differentiation and exercise performance-related gene expression in C2C12 myotube cells with dexamethasone-induced myoatrophy was analyzed. The assay was performed using the same method as in Example 2.

[7] = auraptene 10, 50 mg/kg, 4 weeks, vs dexamethasone-treated group, FIG. 20

CC(C)=CCC/C(C)=C/COc1ccc2ccc(=O)oc2c1 [Compound 2, Auraptene]
muscle force compared to the dexamethasone-treated group ([1]; auraptene 10, 50 mg/kg oral once daily, Dexamethasone 20 mg/kg 2 weeks, FIG. 19): increased
calf muscle weight [2, 7]: significantly increased
longissimus dorsi muscle weight [2, 7]: significantly increased
soleus muscle weight [2, 7]: significantly increased
thigh muscle weight [2, 7]: significantly increased
diameter of myotube cells decreased by dexamethasone treatment [3]: restored
glutathione (GSH) content [4]: increased
mitochondrial dysfunction induced by dexamethasone treatment [4]: improved
viability of myotube cells reduced by dexamethasone treatment, auraptene by concentration ([5]; 5 uM, 10 uM, 20 uM, all experimental groups, FIG. 14): restore
viability of myotube cells reduced by dexamethasone treatment, by isolated compounds [5]: excellently restore
viability of myotube cells reduced by dexamethasone treatment, by isolated compounds ([5]; listed as auraptene): best effect
Myf5 gene expression (myotube cell differentiation marker) ([6]; FIG. 16): increased
Myod1 gene expression (myotube cell differentiation marker) ([6]; FIG. 16): increased
Myog gene expression (myotube cell differentiation marker) ([6]; FIG. 16): increased
Nrf1 gene expression (motor performance marker) ([6]; FIG. 17): increased
Pparg1a gene expression (motor performance marker) ([6]; FIG. 17): increased
Tomm20 gene expression (motor performance marker) ([6]; FIG. 17): increased
UCP3 gene expression (motor performance marker) ([6]; FIG. 17): increased

O=c1ccc2ccc(O)cc2o1 [Compound 3, Umbelliferone]
viability of myotube cells reduced by dexamethasone treatment, by isolated compounds [5]: excellently restore

CC(C)C(=O)Cc1c(OCC2OC2(C)C)ccc2ccc(=O)oc12 (stereo not shown) [Compound 9, Isoponcimarin]
viability of myotube cells reduced by dexamethasone treatment, by isolated compounds [5]: excellently restore

C/C(=C\COc1ccc2ccc(=O)oc2c1)C/C=C/C(C)(C)OO [Compound 12, 7-O-(7′-peroxygeranyl)coumarin]
viability of myotube cells reduced by dexamethasone treatment, by isolated compounds [5]: excellently restore

C[C@]12C/C(=C/O)C(=O)C[C@@H]1CC[C@@H]1[C@@H]2CC[C@@]2(C)[C@H]1CC[C@]2(C)O [Oxymetholone, reference compound]
muscle force compared to the group treated with Dexamethasone alone ([1]; oral once daily, PT 10, 50, 100 mg/kg, Oxymetholone 50 mg/kg, Dexamethasone 20 mg/kg i.p. 2 weeks, FIGS. 4 and 5): increased
weight of quadriceps muscle ([2]; after 4 weeks, PT 10, 50, 100 mg/kg, Oxymetholone 50 mg/kg, vs Dexamethasone group, FIG. 6): significantly increased
weight of gastrocnemius muscle ([2]; after 4 weeks, PT 10, 50, 100 mg/kg, Oxymetholone 50 mg/kg, vs Dexamethasone group, FIG. 7): significantly increased
weight of tibialis muscle ([2]; after 4 weeks, PT 10, 50, 100 mg/kg, Oxymetholone 50 mg/kg, vs Dexamethasone group, FIG. 8): significantly increased
